Each block holds one compound with its values, some of them ahead of it. Calls of active or inactive are those of the source. The calls are words filed in the database; no cut-off is given here.
Key:
[1] = test system: HeLa; assay: Antiproliferative activity against human HeLa cells measured after 48 hrs by MTT assay; type: functional, cell-based
[2] = test system: HeLa; assay: Induction of apoptosis in human HeLa cells assessed as increase in PARP cleavage measured after 24 hrs by Western blot analysis; type: functional, cell-based
[3] = test system: HeLa; assay: Induction of microtubule disruption in human HeLa cells at 12 nM measured after 6 hrs by DAPI staining based immunofluorescence microscopy; type: cell-based
[4] = test system: HeLa; assay: Cell cycle arrest in human HeLa cells assessed as decrease in cdc2 expression measured after 24 hrs by Western blot analysis; type: functional, cell-based
[5] = test system: HeLa; assay: Induction of apoptosis in human HeLa cells assessed as late apoptotic cells at 24 nM measured after 24 hrs by Annexin V-FITC/propidium iodide staining based flow cytometry (reference value: 2.34%); type: functional
[6] = Inhibition of pig brain tubulin polymerization measured at 1 min interval for 20 mins by spectrophotometric method; design: species or system Sus scrofa
[7] = test system: HeLa; assay: Induction of apoptosis in human HeLa cells assessed as early apoptotic cells at 12 nM measured after 24 hrs by Annexin V-FITC/propidium iodide staining based flow cytometry (reference value: 3.97%); type: functional
[8] = test system: HeLa; assay: Cell cycle arrest in human HeLa cells assessed as accumulation at S phase at 24 nM measured after 24 hrs by propidium iodide staining based flow cytometry (reference value: 19.78%); type: functional
[9] = test system: HeLa; assay: Induction of apoptosis in human HeLa cells assessed as viable cells at 24 nM measured after 24 hrs by Annexin V-FITC/propidium iodide staining based flow cytometry (reference value: 93.6%); type: functional; details: read-out: Activity
[10] = test system: HeLa; assay: Induction of apoptosis in human HeLa cells assessed as early apoptotic cells at 48 nM measured after 24 hrs by Annexin V-FITC/propidium iodide staining based flow cytometry (reference value: 3.97%); type: functional
[11] = test system: HeLa; assay: Cell cycle arrest in human HeLa cells assessed as accumulation at G0/G1 phase at 12 nM measured after 24 hrs by propidium iodide staining based flow cytometry (reference value: 69.08%); type: functional
[12] = test system: HeLa; assay: Induction of apoptosis in human HeLa cells assessed as necrotic cells at 48 nM measured after 24 hrs by Annexin V-FITC/propidium iodide staining based flow cytometry (reference value: 0.048%); type: functional
[13] = test system: HeLa; assay: Induction of apoptosis in human HeLa cells assessed as viable cells at 12 nM measured after 24 hrs by Annexin V-FITC/propidium iodide staining based flow cytometry (reference value: 93.6%); type: functional; details: read-out: Activity
[14] = test system: HeLa; assay: Cell cycle arrest in human HeLa cells assessed as accumulation at G0/G1 phase at 48 nM measured after 24 hrs by propidium iodide staining based flow cytometry (reference value: 69.08%); type: functional
[15] = test system: HeLa; assay: Cell cycle arrest in human HeLa cells assessed as accumulation at S phase at 48 nM measured after 24 hrs by propidium iodide staining based flow cytometry (reference value: 19.78%); type: functional
[16] = test system: A549; assay: Antiproliferative activity against human A549 cells measured after 48 hrs by MTT assay; type: functional, cell-based; details: A549, 48 h
[17] = test system: HeLa; assay: Cell cycle arrest in human HeLa cells assessed as decrease in cyclin B1 expression measured after 24 hrs by Western blot analysis; type: functional, cell-based
[18] = test system: T47D; assay: Antiproliferative activity against human T47D cells measured after 48 hrs by MTT assay; type: functional, cell-based
[19] = test system: HeLa; assay: Induction of apoptosis in human HeLa cells assessed as viable cells at 48 nM measured after 24 hrs by Annexin V-FITC/propidium iodide staining based flow cytometry (reference value: 93.6%); type: functional; details: read-out: Activity
[20] = test system: HeLa; assay: Induction of apoptosis in human HeLa cells assessed as necrotic cells at 24 nM measured after 24 hrs by Annexin V-FITC/propidium iodide staining based flow cytometry (reference value: 0.048%); type: functional
[21] = test system: HeLa; assay: Induction of apoptosis in human HeLa cells assessed as early apoptotic cells at 24 nM measured after 24 hrs by Annexin V-FITC/propidium iodide staining based flow cytometry (reference value: 3.97%); type: functional
[22] = species: Sus scrofa; assay: Inhibition of pig brain tubulin polymerization at 10 uM measured at 1 min interval for 20 mins by spectrophotometric method relative to control
[23] = test system: HeLa; assay: Induction of apoptosis in human HeLa cells assessed as down regulation of Bcl-2 expression at 12 to 48 nM measured after 24 hrs by Western blot analysis; type: functional, cell-based; details: dose 12-48 nM
[24] = test system: HeLa; assay: Induction of apoptosis in human HeLa cells measured after 24 hrs by Annexin V-FITC/propidium iodide staining based flow cytometry; type: functional, cell-based
[25] = test system: HeLa; assay: Cell cycle arrest in human HeLa cells assessed as accumulation at G2M phase at 48 nM measured after 24 hrs by propidium iodide staining based flow cytometry (reference value: 11.14%); type: functional
[26] = test system: HeLa; assay: Induction of apoptosis in human HeLa cells assessed as late apoptotic cells at 12 nM measured after 24 hrs by Annexin V-FITC/propidium iodide staining based flow cytometry (reference value: 2.34%); type: functional
[27] = test system: HeLa; assay: Cell cycle arrest in human HeLa cells assessed as accumulation at G2M phase at 12 nM measured after 24 hrs by propidium iodide staining based flow cytometry (reference value: 11.14%); type: functional
[28] = test system: HeLa; assay: Cell cycle arrest in human HeLa cells assessed as accumulation at G2M phase at 24 nM measured after 24 hrs by propidium iodide staining based flow cytometry (reference value: 11.14%); type: functional
[29] = test system: HeLa; assay: Cell cycle arrest in human HeLa cells assessed as accumulation at S phase at 12 nM measured after 24 hrs by propidium iodide staining based flow cytometry (reference value: 19.78%); type: functional
[30] = test system: MCF7; assay: Antiproliferative activity against human MCF7 cells measured after 48 hrs by MTT assay; type: functional, cell-based; details: MCF7, 48 h
[31] = test system: HEK293; assay: Cytotoxicity against HEK293 cells measured after 48 hrs by MTT assay; type: cell-based; details: Homo sapiens, HEK293, 48 h
[32] = test system: HeLa; assay: Cell cycle arrest in human HeLa cells assessed as accumulation at G0/G1 phase at 24 nM measured after 24 hrs by propidium iodide staining based flow cytometry (reference value: 69.08%); type: functional
[33] = test system: HeLa; assay: Cell cycle arrest in human HeLa cells assessed as increase in accumulation at G2M phase measured after 24 hrs by propidium iodide staining based flow cytometry; type: functional
[34] = test system: HeLa; assay: Induction of apoptosis in human HeLa cells assessed as necrotic cells at 12 nM measured after 24 hrs by Annexin V-FITC/propidium iodide staining based flow cytometry (reference value: 0.048%); type: functional
[35] = test system: HeLa; assay: Induction of apoptosis in human HeLa cells assessed as late apoptotic cells at 48 nM measured after 24 hrs by Annexin V-FITC/propidium iodide staining based flow cytometry (reference value: 2.34%); type: functional

Structure (SMILES): COc1cc(-c2nnc3ccc(-c4ccccc4OC(F)(F)F)cn23)cc(OC)c1OC
IC50 [1]: 22.2 µM

Structure (SMILES): COc1cc(C2=NC3=NC(C)=C(C(C)=O)C(c4ccc([N+](=O)[O-])cc4)N3N2)cc(OC)c1OC (configuration not stated)
IC50 [1]: 0.75 µM | IC50 [31]: 29.9 µM

Structure (SMILES): COc1ccc(-c2nnc3ccc(-c4cc(OC)c(OC)c(OC)c4)cn23)cc1O
IC50 [1]: 22.1 µM

Structure (SMILES): COc1ccc(-c2ccc3nnc(-c4cc(OC)c(OC)c(OC)c4)n3c2)c(OC)c1
IC50 [1]: 7.9 µM

Structure (SMILES): COc1cc(-c2nnc3ccc(-c4ccc5ccccc5c4)cn23)cc(OC)c1OC
IC50 [1]: > 25 µM

Structure (SMILES): COc1ccc(/C=C\c2cc(OC)c(OC)c(OC)c2)cc1O [COMBRETASTATIN A4]
Activity [3]: Active | IC50 [1]: 0.0047 µM | inhibition [22]: 79% | IC50 [30]: 0.17 µM

Structure (SMILES): COc1ccc(F)cc1-c1ccc2nnc(-c3cc(OC)c(OC)c(OC)c3)n2c1
IC50 [1]: 0.651 µM

Structure (SMILES): COc1cc(-c2nnc3ccc(-c4ccc(C(F)(F)F)cc4)cn23)cc(OC)c1OC
IC50 [1]: > 25 µM

Structure (SMILES): COc1ccc(-c2nnc3ccc(-c4cc(OC)c(OC)c(OC)c4)cn23)cc1
IC50 [1]: > 25 µM

Structure (SMILES): COc1cc(-c2ccc3nnc(-c4ccc(F)cc4)n3c2)cc(OC)c1OC
IC50 [1]: > 25 µM

Structure (SMILES): COc1cc(-c2ccc3nnc(-c4ccc(Cl)c(Cl)c4)n3c2)cc(OC)c1OC
IC50 [1]: > 25 µM

Structure (SMILES): COc1cc(-c2ccc3nnc(-c4ccc(C)cc4)n3c2)cc(OC)c1OC
IC50 [1]: > 25 µM

Structure (SMILES): COc1cc(-c2nnc3ccc(-c4cccnc4OC)cn23)cc(OC)c1OC
IC50 [1]: 20.6 µM

Structure (SMILES): COc1ccc(-c2nnc3ccc(-c4cc(OC)c(OC)c(OC)c4)cn23)cc1[N+](=O)[O-]
IC50 [1]: > 25 µM

Structure (SMILES): COc1cc(-c2ccc3nnc(-c4ccc(Cl)cc4)n3c2)cc(OC)c1OC
IC50 [1]: > 25 µM

Structure (SMILES): COc1ccc(-c2nnc3ccc(-c4cc(OC)c(OC)c(OC)c4)cn23)cc1N
IC50 [1]: 3.97 µM

Structure (SMILES): COc1ccc(-c2ccc3nnc(-c4cc(OC)c(OC)c(OC)c4)n3c2)c(O)c1
IC50 [1]: > 25 µM

Structure (SMILES): COc1cc(-c2nnc3ccc(-c4ccc(O)cc4)cn23)cc(OC)c1OC
IC50 [1]: > 25 µM

Continued, in another order:

IC50 [6]: 3.4 µM | IC50 [16]: 10.4 µM | IC50 [18]: 27.9 µM | IC50 [1]: 0.012 µM | inhibition [22]: 81% | IC50 [30]: 40.4 µM
Structure (SMILES): COc1ccc(-c2ccc3nnc(-c4cc(OC)c(OC)c(OC)c4)n3c2)cc1N
Activity [2]: Dose-dependent effect | Activity [3]: Active | Activity [4]: Dose-dependent effect | Activity [5]: 7.97% | Activity [7]: 5.21% | Activity [8]: 22.41% | viability at 0.024 µM [9]: 72.8% | Activity [10]: 36.4% | Activity [11]: 64.07% | Activity [12]: 0.922% | viability at 0.012 µM [13]: 91.4% | Activity [14]: 2.13% | Activity [15]: 5.22% | Activity [17]: Dose-dependent effect | viability at 0.048 µM [19]: 45.8% | Activity [20]: 0.373% | Activity [21]: 18.9% | Activity [23]: Active | Activity [24]: Dose-dependent effect | Activity [25]: 92.65% | Activity [26]: 3.23% | Activity [27]: 13.9% | Activity [28]: 26% | Activity [29]: 22.03% | IC50 [31]: > 100 µM | Activity [32]: 51.59% | Activity [33]: Dose-dependent effect | Activity [34]: 0.139% | Activity [35]: 16.9%

IC50 [16]: 78.6 µM | IC50 [18]: 76 µM | IC50 [1]: 0.025 µM | inhibition [22]: 18% | IC50 [30]: > 100 µM
Structure (SMILES): COc1cc(-c2nnc3ccc(-c4ccc(F)cc4)cn23)cc(OC)c1OC
IC50 [31]: > 100 µM

IC50 [6]: 4.1 µM | IC50 [16]: 6.26 µM | IC50 [18]: > 100 µM | IC50 [1]: 0.034 µM | inhibition [22]: 77% | IC50 [30]: > 100 µM
Structure (SMILES): COc1cc(-c2nnc3ccc(-c4ccc(C)cc4)cn23)cc(OC)c1OC
IC50 [31]: > 100 µM

IC50 [16]: 58.7 µM | IC50 [18]: > 100 µM | IC50 [1]: 0.062 µM | inhibition [22]: 36% | IC50 [30]: 75.7 µM
Structure (SMILES): COc1ccc(-c2ccc3nnc(-c4cc(OC)c(OC)c(OC)c4)n3c2)cc1[N+](=O)[O-]
IC50 [31]: > 100 µM

IC50 [1]: 0.153 µM
Structure (SMILES): COc1cc(F)ccc1-c1ccc2nnc(-c3cc(OC)c(OC)c(OC)c3)n2c1

IC50 [1]: 0.347 µM
Structure (SMILES): COc1cc(-c2nnc3ccc(-c4ccc(Cl)c(Cl)c4)cn23)cc(OC)c1OC

IC50 [16]: 17.8 µM | IC50 [18]: > 100 µM | IC50 [1]: 0.045 µM | inhibition [22]: 14% | IC50 [30]: > 100 µM
Structure (SMILES): COc1ccc(-c2ccc3nnc(-c4cc(OC)c(OC)c(OC)c4)n3c2)cc1O
IC50 [31]: > 100 µM

IC50 [6]: 11.3 µM | IC50 [16]: 87.1 µM | IC50 [18]: > 100 µM | IC50 [1]: 0.119 µM | inhibition [22]: 68% | IC50 [30]: > 100 µM
Structure (SMILES): COc1ccc(-c2ccc3nnc(-c4cc(OC)c(OC)c(OC)c4)n3c2)cc1OC

IC50 [1]: 0.446 µM
Structure (SMILES): COc1cccc(-c2ccc3nnc(-c4cc(OC)c(OC)c(OC)c4)n3c2)c1

IC50 [1]: 0.194 µM
Structure (SMILES): COc1ccc(-c2ccc3nnc(-c4cc(OC)c(OC)c(OC)c4)n3c2)cc1

IC50 [16]: 9.28 µM | IC50 [18]: 31.5 µM | IC50 [1]: 0.084 µM | inhibition [22]: 16% | IC50 [30]: 13.7 µM
Structure (SMILES): COc1ccccc1-c1ccc2nnc(-c3cc(OC)c(OC)c(OC)c3)n2c1
IC50 [31]: > 100 µM

IC50 [1]: 0.023 µM
Structure (SMILES): COc1cc(-c2nnc3ccc(-c4ccc([N+](=O)[O-])cc4)cn23)cc(OC)c1OC
IC50 [31]: > 100 µM

IC50 [1]: 0.065 µM
Structure (SMILES): COc1cc(-c2nnc3ccc(-c4ccc(Cl)cc4)cn23)cc(OC)c1OC
IC50 [31]: > 100 µM
